Eight compounds from article PMC12686490 (Nature Communications, 2025) can be followed below.

Assay [1] relates to CCKBR-LTP in the auditory cortex. Kind of assay: MEA recording, TBS-induced CCKBR-LTP in auditory cortex slices of C57 mice. The arrangement: species or system mouse. The settings on record: for Effect on TBS-induced CCKBR-LTP: one-hour preincubation: 100 nM YF476, 10 μM U-73122, 50 μM 2-APB, 20 μM YM254890, 100 μM barbadin, 10 μM H-89, 300 ng PTX injected into AC 24-48 h before.

Assay [2] concerns the target T1, CCKBR (Homo sapiens, UniProt P32239).
T1 sequence (P32239 1-447): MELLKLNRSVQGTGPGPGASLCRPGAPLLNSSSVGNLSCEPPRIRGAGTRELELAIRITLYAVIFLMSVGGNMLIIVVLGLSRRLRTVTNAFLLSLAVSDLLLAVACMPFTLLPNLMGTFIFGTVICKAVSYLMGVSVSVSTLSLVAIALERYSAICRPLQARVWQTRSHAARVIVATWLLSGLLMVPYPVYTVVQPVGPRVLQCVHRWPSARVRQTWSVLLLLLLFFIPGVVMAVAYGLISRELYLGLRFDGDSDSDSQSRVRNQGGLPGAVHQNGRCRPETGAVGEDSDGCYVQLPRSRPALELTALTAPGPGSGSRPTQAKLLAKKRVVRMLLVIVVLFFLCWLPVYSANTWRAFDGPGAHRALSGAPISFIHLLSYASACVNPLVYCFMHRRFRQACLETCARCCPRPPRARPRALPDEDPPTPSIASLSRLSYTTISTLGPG
Kind of assay: Calcium mobilization assay. It is filed as cell-based. The settings on record: screening.

Assay [3] addresses T1, CCKBR. Put plainly: PRESTO-Tango assay. The assay is classed as cell-based. The settings on record: screening.
Assay [4] has as its system CCKBR-LTP in the auditory cortex. Put plainly: MEA recording, drug plus LFS-induced LTP in auditory cortex slices. The arrangement: species or system mouse. The settings on record: 200 nM, 10 min, AC slices of C57 mice.
Assay [5] has as its target GPR173 / β-arrestin1 (Homo sapiens, UniProt Q9NS66). Kind of assay: BRET-based β-arrestin1 assay, 293T-GPR173 cells. The assay is classed as cell-based. The settings on record: up to 10 μM. A general note: In BRET a luciferase serves as donor, and the signal depends on an acceptor being close.
Assay [6] concerns the target GPR173 / β-arrestin2 (Homo sapiens, UniProt Q9NS66). Kind of assay: BRET-based β-arrestin2 assay, 293T-GPR173 cells. It is filed as cell-based. The settings on record: up to 10 μM.

Numbered stars: 1 amine (or outer) side, 2 acyl side, 3 side chain; on linkers, the order of the positions; unused ones are H or OH. Bridge positions count the residues as written; N and C are the ends. Square brackets hold non-standard residues; d marks the D form. Peptide text beside a SMILES is read from it. X1 = O=C(C1(O)C[C@H](O)[C@@H](N[*:1])[C@H]([C@H](O)[C@H](O)CO)O1)[*:2]; X2 = CC(=O)NC(C(=O)OC(C(C)C)C(N[*:1])C(=O)[*:2])C(O)C(C)C; NMeW = CN[C@@H](Cc1c[nH]c2ccccc12)C(=O)O; Phe(3-Br) = N[C@@H](Cc1cccc(Br)c1)C(=O)O; PhLac = O=C(O)[CH](O)Cc1ccccc1; NMeT = CN[CH](C(=O)O)[CH](C)O; Nle = CCCC[C@H](N)C(=O)O; NMeA = CN[CH](C)C(=O)O; NMeDha = C=C(NC)C(=O)O

Sequence of GPR173 / β-arrestin1 (Q9NS66 whole entry): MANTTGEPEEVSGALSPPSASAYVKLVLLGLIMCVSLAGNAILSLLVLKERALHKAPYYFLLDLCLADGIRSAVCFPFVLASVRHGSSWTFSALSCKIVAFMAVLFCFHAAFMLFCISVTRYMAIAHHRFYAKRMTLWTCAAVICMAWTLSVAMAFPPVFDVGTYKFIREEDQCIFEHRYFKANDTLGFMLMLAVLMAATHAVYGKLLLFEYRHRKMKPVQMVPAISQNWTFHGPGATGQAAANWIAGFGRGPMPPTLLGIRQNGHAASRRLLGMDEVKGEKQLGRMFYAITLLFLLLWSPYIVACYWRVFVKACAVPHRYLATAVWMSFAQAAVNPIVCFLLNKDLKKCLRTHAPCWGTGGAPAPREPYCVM
Sequence of GPR173 / β-arrestin2 (Q9NS66 whole entry): as above

With `C=C1C(=O)NC(C)C(=O)N(C)C(C)C(=O)NC(C(OC(=O)C(NC(C)=O)C(O)C(C)C)C(C)C)C(=O)N(C)C(C(C)OC)C(=O)OC(C)C(NC(C)=O)C(=O)OC(Cc2ccccc2)C(=O)N1C` (stereo not drawn) [YM254890] (Ac-T[PhLac][NMeDha]A[NMeA][X2][NMeT](Me); ester 1-C; configuration not given here), in assay [1], the “Effect on TBS-induced CCKBR-LTP” value was “significantly and almost completely inhibited”.
For `CCCC[C@H](NC(=O)[C@H](Cc1c[nH]c2ccccc12)N(C)C(=O)C1(O)C[C@H](O)[C@@H](NC(C)=O)[C@H]([C@H](O)[C@H](O)CO)O1)C(=O)N[C@@H](CC(=O)O)C(=O)N[C@@H](Cc1cccc(Br)c1)C(N)=O` (stereo partly drawn) [MF-7] (Ac-[X1][NMeW][Nle]D[Phe(3-Br)]-NH2), the “Activation of Gαq/11-Ca2+ signaling” value in assay [2] is listed as “performed poorly”. Moreover, the “Induction of β-arrestin2 signaling” value in assay [3] is listed as “highly potent”.
For `CSCC[C@H](NC(=O)[C@H](Cc1ccc(OS(=O)(=O)O)cc1)NC(=O)[C@@H](N)CC(=O)O)C(=O)NCC(=O)N[C@@H](Cc1c[nH]c2ccccc12)C(=O)N[C@@H](CCSC)C(=O)N[C@@H](CC(=O)O)C(=O)N[C@@H](Cc1ccccc1)C(N)=O` [CCK8s], the “LTP induction by drug with LFS (fEPSP amplitude)” value in assay [4] was “induced LTP”. In addition, the “Activation of β-arrestin1 downstream of GPR173” value in assay [5] is “could activate”. Besides, the “Activation of β-arrestin2 downstream of GPR173” value in assay [6] is “could activate”.
Consider `CNc1cccc(NC(=O)N[C@@H]2N=C(c3ccccn3)c3ccccc3N(CC(=O)C(C)(C)C)C2=O)c1` [YF476], for which the “Effect on TBS-induced CCKBR-LTP” value in assay [1] is reported as “confirmed that the LTP was CCKBR-dependent”.
For the compound `NCCOB(c1ccccc1)c1ccccc1` [2-APB], the “Effect on TBS-induced CCKBR-LTP” value in assay [1] is “significantly and almost completely inhibited”.
Take `COc1ccc2c(c1)CC[C@@H]1[C@@H]2CC[C@]2(C)[C@@H](NCCCCCCN3C(=O)C=CC3=O)CC[C@@H]12` [U-73122]: the “Effect on TBS-induced CCKBR-LTP” value in assay [1] is “significantly and almost completely inhibited”.
Regarding `Nn1cnc2scc(-c3ccc(Cc4ccccc4)cc3)c2c1=O` [barbadin], the “Effect on the inhibition of TBS-induced LTP by MF-8” value in assay [1] (2-h preincubation of barbadin + 200 nM MF-8) is “could indeed eliminate the inhibitory effect of MF-8”. Besides, the “Effect on TBS-induced CCKBR-LTP” value in assay [1] is “could not inhibit”.
For the compound `O=S(=O)(NCCNC/C=C/c1ccc(Br)cc1)c1cccc2cnccc12` [H-89], the “Effect on TBS-induced CCKBR-LTP” value in assay [1] was “partially inhibited”.
